In one test the target is KDR (VEGFR2) (Homo sapiens (Human), UniProt P35968). The experiment in a line: SelectScreen Z'-LYTE kinase assay, Assay 540 for KDR (VEGFR2). Type of test: biochemical. The settings on record: Z'-LYTE activity assay, 75 μM ATP (Km app); read-out: VEGFR2 Enzyme IC50.
The target of the next test is CSF-1R (FMS) (Homo sapiens (Human), UniProt P07333). The experiment in a line: SelectScreen Z'-LYTE kinase assay, Assay 336 for CSF-1R (FMS). The following applies: Z'-LYTE activity assay, 500 μM ATP (Km app); read-out: CSF-1R Enzyme IC50. Type of test: biochemical.
Chain of CSF-1R (FMS) (P07333 20-972): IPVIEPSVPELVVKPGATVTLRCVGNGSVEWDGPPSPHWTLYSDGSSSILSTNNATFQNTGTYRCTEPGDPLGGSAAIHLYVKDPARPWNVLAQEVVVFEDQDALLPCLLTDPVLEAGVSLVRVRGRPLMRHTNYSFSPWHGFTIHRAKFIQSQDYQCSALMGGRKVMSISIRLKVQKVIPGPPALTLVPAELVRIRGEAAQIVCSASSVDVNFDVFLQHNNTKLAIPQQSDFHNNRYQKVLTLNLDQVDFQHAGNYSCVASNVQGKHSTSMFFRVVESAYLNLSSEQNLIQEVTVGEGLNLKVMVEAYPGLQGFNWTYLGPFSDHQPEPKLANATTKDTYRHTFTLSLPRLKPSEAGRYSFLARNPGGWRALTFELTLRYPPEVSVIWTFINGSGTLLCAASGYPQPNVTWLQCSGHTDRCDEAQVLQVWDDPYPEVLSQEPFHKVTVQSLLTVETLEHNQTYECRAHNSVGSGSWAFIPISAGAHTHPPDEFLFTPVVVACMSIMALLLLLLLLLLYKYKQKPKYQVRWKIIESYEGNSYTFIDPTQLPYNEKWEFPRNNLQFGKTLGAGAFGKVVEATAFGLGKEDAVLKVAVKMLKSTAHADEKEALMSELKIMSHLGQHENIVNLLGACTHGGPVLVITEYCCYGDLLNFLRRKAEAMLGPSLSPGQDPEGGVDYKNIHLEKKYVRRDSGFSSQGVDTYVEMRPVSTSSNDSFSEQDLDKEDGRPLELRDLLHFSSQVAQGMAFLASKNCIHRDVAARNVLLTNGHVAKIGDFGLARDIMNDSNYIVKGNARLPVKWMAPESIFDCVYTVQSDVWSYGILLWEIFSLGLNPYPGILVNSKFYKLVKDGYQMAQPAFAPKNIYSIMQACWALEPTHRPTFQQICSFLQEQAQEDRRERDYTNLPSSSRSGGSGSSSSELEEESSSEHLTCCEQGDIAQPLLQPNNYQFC

Chain of KDR (VEGFR2) (P35968 20-1356): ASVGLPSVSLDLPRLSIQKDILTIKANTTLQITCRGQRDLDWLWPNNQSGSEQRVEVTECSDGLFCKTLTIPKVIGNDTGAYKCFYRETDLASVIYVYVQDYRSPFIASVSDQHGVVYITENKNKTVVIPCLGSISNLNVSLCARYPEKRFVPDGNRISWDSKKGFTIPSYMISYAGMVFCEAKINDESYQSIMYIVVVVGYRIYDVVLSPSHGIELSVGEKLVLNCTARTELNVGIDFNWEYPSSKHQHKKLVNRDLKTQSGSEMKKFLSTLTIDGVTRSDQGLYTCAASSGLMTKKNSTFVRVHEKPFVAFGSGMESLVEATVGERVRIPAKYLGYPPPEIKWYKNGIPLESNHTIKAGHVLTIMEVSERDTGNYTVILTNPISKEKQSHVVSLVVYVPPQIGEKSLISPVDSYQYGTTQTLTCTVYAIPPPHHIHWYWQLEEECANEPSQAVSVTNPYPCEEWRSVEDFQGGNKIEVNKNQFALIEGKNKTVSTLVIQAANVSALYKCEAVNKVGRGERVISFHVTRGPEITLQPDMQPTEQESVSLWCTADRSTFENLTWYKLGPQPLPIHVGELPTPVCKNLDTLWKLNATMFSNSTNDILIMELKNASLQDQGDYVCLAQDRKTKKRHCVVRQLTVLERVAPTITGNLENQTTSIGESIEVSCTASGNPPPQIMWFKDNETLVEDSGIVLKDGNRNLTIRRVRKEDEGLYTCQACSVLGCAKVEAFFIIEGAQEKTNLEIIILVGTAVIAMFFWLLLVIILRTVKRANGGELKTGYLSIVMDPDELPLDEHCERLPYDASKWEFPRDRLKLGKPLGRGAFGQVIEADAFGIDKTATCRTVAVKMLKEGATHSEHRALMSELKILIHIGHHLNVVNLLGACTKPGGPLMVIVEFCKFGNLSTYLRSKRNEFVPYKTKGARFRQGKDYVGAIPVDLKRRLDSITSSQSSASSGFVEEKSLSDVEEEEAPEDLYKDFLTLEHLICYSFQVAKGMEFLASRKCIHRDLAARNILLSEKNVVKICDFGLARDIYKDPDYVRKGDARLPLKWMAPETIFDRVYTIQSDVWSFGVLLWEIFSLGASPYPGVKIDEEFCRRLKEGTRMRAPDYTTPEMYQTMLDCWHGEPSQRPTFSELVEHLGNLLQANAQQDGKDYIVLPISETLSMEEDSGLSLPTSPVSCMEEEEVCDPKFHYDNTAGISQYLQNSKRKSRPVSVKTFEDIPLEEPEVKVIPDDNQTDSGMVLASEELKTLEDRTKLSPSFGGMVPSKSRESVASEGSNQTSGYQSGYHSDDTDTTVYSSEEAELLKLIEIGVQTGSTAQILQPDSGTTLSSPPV

Regarding `Cc1cc(OCCN2C[C@@H](C)N(C)[C@@H](C)C2)c2oc3cc(Oc4ccc(CCC(=O)NC5CCCC5)nc4)ccc3c(=O)c2c1` [Example 62, N-Cyclopentyl-3-(5-((7-methyl-9-oxo-5-(2-((3S,5R)-3,4,5-trimethylpiperazin-1-yl)ethoxy)-9H-xanthen-3-yl)oxy)pyridin-2-yl)propanamide], the figures for the IC50 on KDR (VEGFR2) and on CSF-1R (FMS) were greater than 10 µM and less than 100 nM, respectively.
As to `Cc1cc(OCCCN2CCN(C(C)C)CC2)c2oc3cc(Oc4ccc(CCC(=O)NC5CCCC5)nc4)ccc3c(=O)c2c1` [Example 66, N-Cyclopentyl-3-(5-((5-(3-(4-isopropylpiperazin-1-yl)propoxy)-7-methyl-9-oxo-9H-xanthen-3-yl)oxy)pyridin-2-yl)propanamide], the half-maximal inhibitory concentration (IC50) is 1 to 10 µM at KDR (VEGFR2) and less than 100 nM on CSF-1R (FMS).
For `Cc1cc(OCCN(C)C)c2oc3cc(Sc4ccc(CCC(=O)NC5CCCC5)nc4)ccc3c(=O)c2c1` [Example 43, N-Cyclopentyl-3-(5-((5-(2-(dimethylamino)ethoxy)-7-methyl-9-oxo-9H-xanthen-3-yl)thio)pyridin-2-yl)propanamide], the IC50 on KDR (VEGFR2) was 1 to 10 µM; on CSF-1R (FMS) it was less than 100 nM.
Turning to `Cc1cc(OCCN(C)C)c2oc3cc(Oc4ccc(NCC(=O)NC5CCCC5)nc4)ccc3c(=O)c2c1` [Example 25, N-Cyclopentyl-2-((5-((5-(2-(dimethylamino)ethoxy)-7-methyl-9-oxo-9H-xanthen-3-yl)oxy)pyridin-2-yl)amino)acetamide], the IC50 is greater than 10 µM on KDR (VEGFR2) and less than 100 nM on CSF-1R (FMS).
Take `Cc1cc(OCCN(C)C)c2oc3cc(Oc4ccc(N)nc4)ccc3c(=O)c2c1` [Example 17, 6-((6-Aminopyridin-3-yl)oxy)-4-(2-(dimethylamino)ethoxy)-2-methyl-9H-xanthen-9-one]: the results for the IC50 at KDR (VEGFR2) and on CSF-1R (FMS) were greater than 10 µM and 100 to 1000 nM, respectively.
As for `Cc1cc(OC2CCN(C)CC2)c2oc3cc(Oc4ccc(CCC(=O)NC5CCCC5)nc4)ccc3c(=O)c2c1` [Example 71, N-Cyclopentyl-3-[5-({7-methyl-5-[(1-methyl-4-piperidinyl)oxy]-9-oxo-9H-xanthen-3-yl}oxy)-2-pyridinyl]propanamide], the half-maximal inhibitory concentration (IC50) at KDR (VEGFR2) was 1 to 10 µM.
Take `Cc1cc(OCCCN(C)C)c2oc3cc(Oc4ccccc4)ccc3c(=O)c2c1` [Example 30, 4-[3-(Dimethylamino)propoxy]-2-methyl-6-phenoxy-9H-xanthen-9-one]: the figures for the IC50 on KDR (VEGFR2) and on CSF-1R (FMS) were 1 to 10 µM and 100 to 1000 nM, respectively.
The like results for `Cc1cc(OCCCN2CCOCC2)c2oc3cc(Oc4ccccc4)ccc3c(=O)c2c1` [Example 33, 2-Methyl-4-(3-morpholinopropoxy)-6-phenoxy-9H-xanthen-9-one] were, in that order, greater than 10 µM and 100 to 1000 nM.
As for `Cc1cc(OCCCCN(C)C)c2oc3cc(Oc4ccccc4)ccc3c(=O)c2c1` [Example 34, 4-(4-(Dimethylamino)butoxy)-2-methyl-6-phenoxy-9H-xanthen-9-one], the concentration for half-maximal inhibition (IC50) lay within 1 to 10 µM on KDR (VEGFR2) and 100 to 1000 nM at CSF-1R (FMS).
In the case of `COc1ccc(Cc2ccc3c(=O)c4cc(C)cc(OCCN(C)C)c4oc3c2)cn1` [Example 19, 4-(2-(Dimethylamino)ethoxy)-6-((6-methoxypyridin-3-yl)methyl)-2-methyl-9H-xanthen-9-one], the half-maximal inhibitory concentration (IC50) at KDR (VEGFR2) was greater than 10 µM; at CSF-1R (FMS) it was 100 to 1000 nM.
The like results for `Cc1cc(OCCN(C)C)c2oc3cc(Oc4cccnc4)ccc3c(=O)c2c1` [Example 53, 4-(2-(Dimethylamino)ethoxy)-2-methyl-6-(pyridin-3-yloxy)-9H-xanthen-9-one] were, in that order, greater than 10 µM and 100 to 1000 nM.
Turning to `Cc1cc(OCCN(C)C)c2oc3cc(Oc4cccc(C(=O)Nc5ccccc5)c4)ccc3c(=O)c2c1` [Example 5, 3-((5-(2-(Dimethylamino)ethoxy)-7-methyl-9-oxo-9H-xanthen-3-yl)oxy)-N-phenyl-benzamide], the 50% inhibitory concentration (IC50) at KDR (VEGFR2) lay in the range of 1 to 10 µM.
For the compound `Cc1cc(OCCN(C)C)c2oc3cc(Oc4ccc(CCC(=O)Nc5cccnc5)nc4)ccc3c(=O)c2c1` [Example 21, 3-(5-((5-(2-(Dimethylamino)ethoxy)-7-methyl-9-oxo-9H-xanthen-3-yl)oxy)pyridin-2-yl)-N-(pyridin-3-yl)propanamide], at CSF-1R (FMS), the 50% inhibitory concentration (IC50) is less than 100 nM.
Take `Cc1cc(OC[C@@H]2CCCN2C)c2oc3cc(Oc4ccc(CCC(=O)NC5CCCC5)nc4)ccc3c(=O)c2c1` [Example 73, (S)—N-Cyclopentyl-3-(5-((7-methyl-5-((1-methylpyrrolidin-2-yl)methoxy)-9-oxo-9H-xanthen-3-yl)oxy)pyridin-2-yl)propanamide]: on CSF-1R (FMS), the IC50 is less than 100 nM.
On to `CN(C)CCOc1cccc2c(=O)c3ccc(Oc4cccc(C(=O)Nc5ccccc5)c4)cc3oc12` [Example 2, 3-({5-[2-(Dimethylamino)ethoxy]-9-oxo-9H-xanthen-3-yl}oxy)-N-phenylbenzamide], for which the 50% inhibitory concentration (IC50) at KDR (VEGFR2) was 1 to 10 µM; at CSF-1R (FMS) it was less than 100 nM.
For `Cc1cc(OC[C@H]2CCCN2C)c2oc3cc(Oc4ccc(CCC(=O)NC5CCCC5)nc4)ccc3c(=O)c2c1` [Example 72, (R)—N-Cyclopentyl-3-(5-((7-methyl-5-((1-methylpyrrolidin-2-yl)methoxy)-9-oxo-9H-xanthen-3-yl)oxy)pyridin-2-yl)propanamide], at CSF-1R (FMS), the IC50 was less than 100 nM.
Regarding `Cc1cc(OCCN2C[C@@H](C)N[C@@H](C)C2)c2oc3cc(Oc4ccc(CCC(=O)NC5CCCC5)nc4)ccc3c(=O)c2c1` [Example 61, N-Cyclopentyl-3-(5-((5-(2-((3S,5R)-3,5-dimethylpiperazin-1-yl)ethoxy)-7-methyl-9-oxo-9H-xanthen-3-yl)oxy)pyridin-2-yl)propanamide], the concentration for half-maximal inhibition (IC50) on CSF-1R (FMS) was less than 100 nM.
For `Cc1cc(OCCN(C)C)c2oc3cc(Oc4ccc(CCC(=O)N5CCOCC5)nc4)ccc3c(=O)c2c1` [Example 24, 4-(2-(Dimethylamino)ethoxy)-2-methyl-6-((6-(3-morpholino-3-oxopropyl)pyridin-3-yl)oxy)-9H-xanthen-9-one], the IC50 at CSF-1R (FMS) was less than 100 nM.
The same measure, in the same setting: under `Cc1cc(OCCN(C)C)c2oc3cc(Oc4ccc(CCC(=O)N5CCN(C)CC5)nc4)ccc3c(=O)c2c1` [Example 54, 4-(2-(Dimethylamino)ethoxy)-2-methyl-6-((6-(3-(4-methylpiperazin-1-yl)-3-oxopropyl)pyridin-3-yl)oxy)-9H-xanthen-9-one] stands less than 100 nM.
On to `COc1ccc(Oc2ccc3c(=O)c4cc(C)cc(OCCN(C)C)c4oc3c2)cn1` [Example 8, 4-(2-(Dimethylamino)ethoxy)-6-((6-methoxypyridin-3-yl)oxy)-2-methyl-9H-xanthen-9-one], for which the IC50 on KDR (VEGFR2) is greater than 10 µM; on CSF-1R (FMS), 100 to 1000 nM.
For `COc1ccc(CCc2ccc(Oc3ccc4c(=O)c5cc(C)cc(OCCN(C)C)c5oc4c3)cn2)cc1` [Example 18, 4-(2-(Dimethylamino)ethoxy)-6-((6-(4-methoxyphenethyl)pyridin-3-yl)oxy)-2-methyl-9H-xanthen-9-one], the half-inhibitory concentration (IC50) on CSF-1R (FMS) was less than 100 nM.
Still for that read-out and setting: the value for `CN(C)CCOc1ccc2oc3cc(Oc4ccc(CCC(=O)NC5CCCC5)nc4)ccc3c(=O)c2c1` [Example 44, N-Cyclopentyl-3-(5-((7-(2-(dimethylamino)ethoxy)-9-oxo-9H-xanthen-3-yl)oxy)-pyridin-2-yl)propanamide] was less than 100 nM.
Consider `COc1cc(Oc2ccc3c(=O)c4cc(C)cc(OCCN(C)C)c4oc3c2)cnc1OC` [Example 9, 6-((5,6-Dimethoxypyridin-3-yl)oxy)-4-(2-(dimethylamino)ethoxy)-2-methyl-9H-xanthen-9-one], for which the results for the IC50 at KDR (VEGFR2) and at CSF-1R (FMS) were greater than 10 µM and less than 100 nM, respectively.
For the compound `COc1ccc(CNc2ccc(Oc3ccc4c(=O)c5cc(C)cc(OCCN(C)C)c5oc4c3)cn2)cc1` [Example 14, 4-(2-(Dimethylamino)ethoxy)-6-((6-((4-methoxybenzyl)amino)pyridin-3-yl)oxy)-2-methyl-9H-xanthen-9-one], at CSF-1R (FMS), the IC50 was less than 100 nM.
`Cc1cc(OCCN(C)C)c2oc3cc(Oc4ccc(CCNC(=O)N5CCCC5)nc4)ccc3c(=O)c2c1` [Example 27, N-(2-(5-((5-(2-(Dimethylamino)ethoxy)-7-methyl-9-oxo-9H-xanthen-3-yl)oxy)pyridin-2-yl)ethyl)pyrrolidine-1-carboxamide]: on CSF-1R (FMS), the IC50 is less than 100 nM.
As for `Cc1cc(OCCC2CCN(C)CC2)c2oc3cc(Oc4ccccc4)ccc3c(=O)c2c1` [Example 36, 2-Methyl-4-(2-(1-methylpiperidin-4-yl)ethoxy)-6-phenoxy-9H-xanthen-9-one], the results for the 50% inhibitory concentration (IC50) at KDR (VEGFR2) and on CSF-1R (FMS) were 1 to 10 µM and 100 to 1000 nM, respectively.
With `COc1ccc(CCc2ccc(Oc3ccc4c(=O)c5cccc(OCCN(C)C)c5oc4c3)cn2)cc1` [Example 3, 5-[2-(Dimethylamino)ethoxy]-3-({6-[2-(4-methoxyphenyl)ethyl]-3-pyridinyl}oxy)-9H-xanthen-9-one], the IC50 on CSF-1R (FMS) was in the range of 100 to 1000 nM.
For `Cc1cc(OCCN(C)C)cc2c(=O)c3ccc(Oc4ccc(CCC(=O)NC5CCCC5)nc4)cc3oc12` [Example 45, N-Cyclopentyl-3-(5-((7-(2-(dimethylamino)ethoxy)-5-methyl-9-oxo-9H-xanthen-3-yl)oxy)pyridin-2-yl)propanamide], the half-maximal inhibitory concentration (IC50) on KDR (VEGFR2) was 1 to 10 µM; at CSF-1R (FMS) it was less than 100 nM.
In the case of `CNCCOc1cc(C)cc2c(=O)c3ccc(Oc4ccc(CCC(=O)NC5CCCC5)nc4)cc3oc12` [Example 29, N-Cyclopentyl-3-(5-((7-methyl-5-(2-(methylamino)ethoxy)-9-oxo-9H-xanthen-3-yl)oxy)pyridin-2-yl)propanamide], the concentration for half-maximal inhibition (IC50) was greater than 10 µM on KDR (VEGFR2) and less than 100 nM at CSF-1R (FMS).
For `Cc1cc(OCCN(C)C)c2oc3cc(Oc4ccc(NCc5ccc(OC(F)(F)F)cc5)nc4)ccc3c(=O)c2c1` [Example 15, 4-(2-(Dimethylamino)ethoxy)-2-methyl-6-((6-((4-(trifluoromethoxy)benzyl)amino)-pyridin-3-yl)oxy)-9H-xanthen-9-one], the IC50 was greater than 10 µM on KDR (VEGFR2) and less than 100 nM at CSF-1R (FMS).
`Cc1cc(OCCCN2[C@H](C)CCC[C@@H]2C)c2oc3cc(Oc4ccc(CCC(=O)NC5CCCC5)nc4)ccc3c(=O)c2c1` [Example 64, N-Cyclopentyl-3-(5-((5-(3-((2R,6S)-2,6-dimethylpiperidin-1-yl)propoxy)-7-methyl-9-oxo-9H-xanthen-3-yl)oxy)pyridin-2-yl)propanamide]: the IC50 on CSF-1R (FMS) is less than 100 nM.

The IC50 is the concentration that gives 50% inhibition.

The values above are taken from patent publication US11028064B2, “Tricyclic heterocyclic derivatives and uses thereof” (AUCKLAND UNISERVICES LIMITED, priority 2016, dated 2021).
